In brackets after ≈: the same amount, converted by molar mass. Read-outs that look alike come from different tables or passages of the source.
How the values were obtained:
[1] = test system: Vancomycin-resistant E. faecium (ATCC 51559); experiment: Minimum inhibitory concentration, micro-dilution broth, VREm; type: cell-based; conditions: for MIC: Enterococcus faecium, read-out: Minimum Inhibitory Concentration VREm
Description: (§1) All test compounds were assayed in a micro-dilution broth format. Stock solutions were made by serially diluting the compounds using autoclaved millipore water or broth media. The antibacterial activity of the compounds was determined againstmethicillin-resistant S. aureus (MRSA), vancomycin-intermediate-resistant S. aureus (VISA), vancomycin-sensitive E. faecium (VSE), vancomycin-resistant E. faecalis and vancomycin-resistant E. faecium (VRE). Bacteria, to be tested, were grown for about 10 h in the suitable media, MSSA, MRSA and VISA were grown in […] (about 1 g of beef extract, about 2 g of yeast extract, about 5 g of peptone and about 5 g of NaCl in about 1000 mL of sterile distilled water (pH-7)). For solid media, about 5% agar was used along with above mentioned composition. VSE and VRE were cultured in Brain Heart Infusion broth (Himedia). The bacterial samples were freeze dried and stored at −80° C. About 5 μL of these stocks were added to about 3 mL of the nutrient broth or Brain Heart Infusion broth and the culture was grown for about 6 h at about 37° C. prior to the experiments. This 6 h grown culture gives about 10^9 cfu/mL and this was determined by spread plating method. The 6 h grown culture was diluted to give effective cell concentration of about 10^5 cfu/mL, which was then used for determining MIC. Compounds were serially diluted, in sterile water (2-fold dilution is employed) in a way that the working concentration was about 10 μM for MRSA, and VSE while for VRE and VISA it was about 100 μM. About 50 μL of these serial dilutions were added to the wells of 96 well plate followed by the addition of about 150 μL of bacterial solution. The plates were then incubated at about 37° C., 150 rpm in the incubator and O.D at 620 nm was recorded at an interval of about 24 h using TECAN (Infinite series, M200 pro) Plate Reader. Each concentration had triplicate values and the whole experiment was done at least twice and the MIC value was determined by taking the average of triplicate O. D. values for each concentration and plotting it against concentration. The data was then subjected to sigmoidal fitting.

[2] = test system: Methicillin-resistant S. aureus (ATCC 33591); experiment: Minimum inhibitory concentration, micro-dilution broth, MRSA; type: cell-based; conditions: Staphylococcus aureus, read-out: Minimum Inhibitory Concentration MRSA
Description: as §1

[3] = test system: Vancomycin-resistant E. faecalis (VanA, ATCC 51575); experiment: Minimum inhibitory concentration, micro-dilution broth, VREs; type: cell-based; conditions: Enterococcus faecalis, read-out: Minimum Inhibitory Concentration VREs
Description: as §1

[4] = test system: Vancomycin intermediate resistant S. aureus; experiment: Minimum inhibitory concentration, micro-dilution broth, VISA; type: cell-based; conditions: Staphylococcus aureus, read-out: Minimum Inhibitory Concentration VISA
Description: as §1

[5] = test system: methicillin-resistant vancomycin intermediate S. aureus (MR-VISA); experiment: Mouse neutropenic thigh infection model against MR-VISA; type: in vivo; conditions: neutropenic female CD-1 mice, 12 mg/kg intravenously, 24 h post first treatment
Description: In-vivo activity against methicillin-resistant vancomycin intermediate S. aureus (MR-VISA):
Mouse Neutropenic Thigh Infection Model:
About six-week-old, female CD-1 mice (weight, ˜19-24 g) were used for the experiments. The mice were rendered neutropenic (˜100 neutrophils/ml) by injecting two doses of cyclophosphamide intraperitoneally 4 days (150 mg/kg) and 1 day (100 mg/kg) before the infection experiment. 50 μL of […] concentration of the bacterial inoculum (MR-VISA) was injected into the thigh. One hour after inoculation, animals were treated intravenously with saline, vancomycin, linezolid and compound 14 at 12 mg/kg body weight. At 24 h post first treatment, cohorts of animals were euthanized (using ether) and the thighs were collected aseptically. […] The dilutions of the homogenate were plated onto agar plates, which were incubated overnight at 37° C. The bacterial titer was expressed as log10 CFU/g of thigh weight.

[6] = ATCC51559, E. faecium ATCC 51559, O.D. 620 nm at 24 h
[7] = MRSA ATCC 33591, O.D. 620 nm at 24 h
[8] = ATCC51575, E. faecalis ATCC 51575, O.D. 620 nm at 24 h

Row | SMILES | MIC [1, 6] | MIC [2, 7] | MIC [3, 8] | MIC ([4]; O.D. 620 nm at 24 h) | fold more active than vancomycin against VREm/VRE (MIC) ([1]; relative to vancomycin) | in-vivo antibacterial activity compared to vehicle treated mice (saline), in words [5] | MIC ([1]; ATCC51559, 24 h) | MIC ([2]; 24 h) | MIC ([3]; ATCC51575, 24 h) | MIC ([4]; 24 h) | reduction in bacterial count from the vehicle treated mice [5]
1 | CNC(CC(C)C)C(=O)NC1C(=O)N[C@H](CC(N)=O)C(=O)N[C@H]2C(=O)N[C@H]3C(=O)NC(C(=O)N[C@@H](C(=O)O)c4cc(O)cc(O)c4-c4cc3ccc4O)C(O)c3ccc(c(Cl)c3)Oc3cc2cc(c3OC2OC(CO)C(O)C(O)C2OC2CC(C)(N)C(O)C(C)O2)Oc2ccc(cc2Cl)C1O (some centres unmarked) [Vancomycin, reference compound] | – | – | – | – | – | minimal or no activity | 750 µM (≈ 1090 µg/mL) | 0.78 µM (≈ 1.13 µg/mL) | 250 µM (≈ 362 µg/mL) | 8 to 12 µM (≈ 11.6 to 17.4 µg/mL) | –
2 | CCCCCCCCCC[n+]1ccc(CNC2(C)CC(OC3C(Oc4c5cc6cc4Oc4ccc(cc4Cl)C(O)C4NC(=O)[C@@H](NC(=O)[C@@H]6NC(=O)C(CC(N)=O)NC(=O)C(NC(=O)C(CC(C)C)NC)C(O)c6ccc(c(Cl)c6)O5)c5ccc(O)c(c5)-c5c(O)cc(O)cc5[C@@H](C(=O)NCCCNC(=O)C(O)C(O)C(O[C@H]5OC(CO)C(O)C(O)C5O)C(O)CO)NC4=O)OC(CO)C(O)C3O)OC(C)C2O)cc1 (some centres unmarked) [Compound 15] | 0.3 µM | 0.2 µM | 1.3 µM | 0.09 µM | – | – | – | – | – | – | –
3 | CC(=O)NC[C@H]1CN(c2ccc(N3CCOCC3)c(F)c2)C(=O)O1 [linezolid] | – | – | – | – | – | minimal or no activity | – | – | – | – | –

Now from value to compound, other results behind:

Row | MIC [1, 6] | MIC [2, 7] | MIC [3, 8] | MIC ([4]; O.D. 620 nm at 24 h) | fold more active than vancomycin against VREm/VRE (MIC) ([1]; relative to vancomycin) | SMILES | in-vivo antibacterial activity compared to vehicle treated mice (saline), in words [5] | MIC ([1]; ATCC51559, 24 h) | MIC ([2]; 24 h) | MIC ([3]; ATCC51575, 24 h) | MIC ([4]; 24 h) | reduction in bacterial count from the vehicle treated mice [5]
4 | 0.37 µM | 0.28 µM | 1.11 µM | 0.31 µM | – | CCCCCCCCCCCC[n+]1ccc(CNC2(C)CC(OC3C(Oc4c5cc6cc4Oc4ccc(cc4Cl)C(O)C4NC(=O)[C@@H](NC(=O)[C@@H]6NC(=O)C(CC(N)=O)NC(=O)C(NC(=O)C(CC(C)C)NC)C(O)c6ccc(c(Cl)c6)O5)c5ccc(O)c(c5)-c5c(O)cc(O)cc5[C@@H](C(=O)NCCCNC(=O)C(O)C(O)C(OC5OC(CO)C(O)C(O)C5O)C(O)CO)NC4=O)OC(CO)C(O)C3O)OC(C)C2O)cc1 (some centres unmarked) [Compound 16] | – | – | – | – | – | –
5 | 0.09 µM | 0.09 µM | 1.36 µM | 0.1 µM | > 7500 fold | CCCCCCCC[n+]1ccc(CNC2(C)CC(OC3C(Oc4c5cc6cc4Oc4ccc(cc4Cl)C(O)C4NC(=O)[C@@H](NC(=O)[C@@H]6NC(=O)C(CC(N)=O)NC(=O)C(NC(=O)C(CC(C)C)NC)C(O)c6ccc(c(Cl)c6)O5)c5ccc(O)c(c5)-c5c(O)cc(O)cc5[C@@H](C(=O)NCCCNC(=O)C(O)C(O)C(O[C@H]5OC(CO)C(O)C(O)C5O)C(O)CO)NC4=O)OC(CO)C(O)C3O)OC(C)C2O)cc1 (some centres unmarked) [Compound 14] | – | – | – | – | – | ~6.0 log10 CFU/g
